From PMC11537999, “Identification of human pregnane X receptor antagonists utilizing a high-throughput screening platform” (Frontiers in Pharmacology, 2024)

target: T1, hPXR (Homo sapiens, UniProt O75469); assay: PXR luciferase reporter gene assay (qHTS antagonist mode, rifampicin co-treatment) in HepG2-CYP3A4-hPXR cells; type: cell-based; conditions: 2 μM rifampicin, used as treatment concentration in HepaRG cells
T1 construct: expressed in transfected cells; provided by Dr. Taosheng Chen, St. Jude
T1 sequence (O75469 1-434): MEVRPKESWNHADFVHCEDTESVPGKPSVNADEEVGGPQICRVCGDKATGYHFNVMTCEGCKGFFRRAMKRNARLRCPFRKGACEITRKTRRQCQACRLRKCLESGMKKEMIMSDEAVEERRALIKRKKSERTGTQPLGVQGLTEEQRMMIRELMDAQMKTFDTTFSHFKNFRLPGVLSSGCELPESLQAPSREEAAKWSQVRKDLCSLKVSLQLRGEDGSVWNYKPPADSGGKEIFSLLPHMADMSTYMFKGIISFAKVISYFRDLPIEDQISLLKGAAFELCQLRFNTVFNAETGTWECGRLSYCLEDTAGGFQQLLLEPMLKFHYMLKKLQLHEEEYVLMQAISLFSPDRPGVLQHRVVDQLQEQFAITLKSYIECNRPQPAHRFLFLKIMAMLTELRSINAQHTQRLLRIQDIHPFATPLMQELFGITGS
Experimental: HepG2 cells stably transfected with a CYP3A4-luc promoter construct and hPXR expression plasmid were provided by Dr. Taosheng Chen (Department of Chemical Biology and Therapeutics, St. Jude Children’s Research Hospital) ([Lin et al., 2008]). Cells were thawed in EMEM (ATCC, Rockville, Maryland), supplemented with 10% Hyclone FBS (GE Healthcare Life Sciences, Logan, Utah) and 100 U/mL of Penicillin and 100 μg/mL of Streptomycin (Invitrogen, Carlsbad, CA) and kept in an incubator at 37°C and 5% CO2. To culture these HepG2-CYP3A4-hPXR cells, 500 μg/mL of Geneticin (GIBCO, Gaithersburg, MD) was added to the thawing media.
(§1) HepG2-CYP3A4-hPXR cells were dispensed into tissue culture treated 1536-well white assay plates (Greiner Bio-One North America, Monroe, NC) using a Multidrop Combi (Thermo Fisher Scientific Inc., Waltham, Massachusetts) at 2,500 cells/4 µL/well. The cell suspension was prepared using new assay media, which contained phenol red-free DMEM (GIBCO), 5% charcoal/dextran-treated FBS (Invitrogen), 1 mM sodium pyruvate (Invitrogen), 2 mM L-Glutamine (Invitrogen), and 100 U/mL of Penicillin and 100 μg/mL of Streptomycin (Invitrogen). All plates were then incubated for 4 h in a 37°C and 5% CO2 incubator. […] In the primary screen, each compound was tested at 7 concentrations ranging from 46 μM to 1.5 nM. 1 μL of rifampicin, a known PXR agonist, was also co-treated in each well, generating a final concentration of 2 μM, using a Flying Reagent Dispenser (Aurora Discovery, Carlsbad, California). All assay plates were placed in an incubator at 37°C with 5% CO2 for 23 h. Following the incubation period, 1 µL of CellTiter-Fluor reagent (Promega, Madison, Wisconsin) was added to each well and all assay plates were placed back into the incubator set at 37°C and 5% CO2 for 1 h. Fluorescence intensity at 540 nm was measured following excitation at 405 nm using a ViewLux plate reader (Perkin Elmer, Shelton, Connecticut), in order to assess cell viability following treatment. Directly after the fluorescent read, 4 μL of ONE-Glo Luciferase reagent (Promega, Madison, Wisconsin) was added to each well using a Flying Reagent Dispenser, and plates were left to sit at room temperature for 30 min. The luminescence of each plate was then measured using the ViewLux plate reader and data were expressed as relative luminescence units. Gross assay performance was assessed by calculating quality metrics, such as coefficient of variance (CV), signal-to-background ratio (S/B), and Z′ factor, a measure of statistical effect size frequently used to judge whether an assay can be scaled up to a large high-throughput screen ([Zhang et al., 1999]).
Data analysis was completed using a previously described protocol ([Huang et al., 2016]). […] Normalized percent activity for all test compounds was determined using the following equation: % activity = [(V compound - V DMSO)/(V DMSO–V pos)] × 100, where V compound denotes the compound well values, V pos denotes the median value of the positive control wells, and V DMSO denotes the median value of the DMSO-only wells. Following normalization, data points were corrected using DMSO-only plates included at the beginning and end of the compound plate stack using an in-house pattern correction algorithm in order to remove background patterns, as well as other small abnormalities within the dataset ([Southall et al., 2009]). […] Efficacy is then [a inf - a 0 ]. a=a0+ainf−a0 c^n/k^n+c^n
Curve class was further converted to curve rank by combining each class with efficacy, such that good quality, efficacious curves are assigned large absolute curve rank values. […] The activity outcome was based on the PXR antagonist readout activity and a cell viability counter screen.

| SMILES | IC70 values from the original NPACT screen |
| --- | --- |
| CC(C)(C)NC(=O)[C@@H](c1cccnc1)N(C(=O)c1ccco1)c1ccc(C(C)(C)C)cc1 [ML 188] | 1000 nM |
| CC1CCN(c2cc(NC(=O)c3ccccc3)ncn2)CC1 [ML 340] | 3000 nM |
| C=C1C(=O)O[C@@H]2[C@H]1CC[C@H](C)[C@]1(CCC(=O)O1)C2(C)O (stereo partly shown) [NCGC00380135-02] | 7000 nM |
| COC(=O)C[C@H]1C(C)(C)[C@H](OC(=O)c2ccccc2)C2CC3=C4CC(=O)O[C@@H](c5ccoc5)[C@]4(C)CCC3[C@@]1(C)C2=O (stereo partly shown) [NCGC00384964-01] | 15000 nM |
| CC(C)(O)C1Cc2c(ccc(C(=O)CCc3ccccc3)c2O)O1 (stereo not shown) [NCGC00385629-01] | 800 nM |
| CC(C)C[C@@H](C(=O)N[C@@H](Cc1ccc(OCc2ccccc2)cc1)C(=O)NC(C)(C)C)N(C)Cc1ccc(C(C)(C)C)cc1 [PD 173212] | 3000 nM |
| CC(C)NCCCn1c(Sc2cc3c(cc2I)OCO3)nc2c(N)ncnc21 [PU-H71] | 500 nM |
| CCCCCOc1cc2c(cc1-c1cc(/C=C/C(=O)O)ccc1O)C(C)(C)CCC2(C)C [UVI 3003] | 800 nM |
| COC(=O)C1=C(C)NC(COC(N)=O)=C(C(=O)OC(C)C)C1c1cccc(Cl)c1Cl (stereo not shown) [lemildipine] | 600 nM |
| c1ccc2c(Oc3nc(Nc4ccc(N5CCOCC5)cc4)c4ncn(C5CCCCC5)c4n3)cccc2c1 [purmorpharmine] | 10000 nM |

Other lines, results leading:

| IC70 values from the original NPACT screen | SMILES |
| --- | --- |
| 250 nM | CN(C)c1cc2c(cc1Sc1nc3c(N)nccc3n1CCNCC(C)(C)C)OCO2 [CUDC-305] |
| 10000 nM | CCN(CC)C(=O)C(c1ccccc1)N1CCN(c2ccc(NC(=O)c3ccccc3-c3cccnc3)cc2F)CC1 (stereo not shown) [JNJ-31020028] |
| 8000 nM | Cc1cccc2c1CC[C@H](CN1CCC(c3c(Cl)cccc3Cl)CC1)C[C@@H]2O [SB-612111] |
| 3000 nM | Cc1ccccc1C#Cc1ccc(CCC(=O)O)cc1 [TUG-424] |
| 500 nM | CC[C@@H](C)Nc1cc(C(=O)N[C@H]2C[C@H]3CC[C@@H](C2)N3c2ccc(C(=O)C3CC3)cn2)c(C)cc1C(N)=O [XL-888] |

target: T1, hPXR; assay: Pharmacological inhibition (IC50 shift) assay with varying rifampicin in HepG2-CYP3A4-hPXR cells; type: cell-based; conditions: co-treated with 2 µM versus 10 µM rifampicin
Experimental: as §1
Each curve was co-treated with 5 μM RIF, 7.5 μM RIF, or 10 μM RIF (a well-known PXR agonist) to determine pharmacological activity. […] Each curve was generated from a combination of all data points together.

| decrease in potency | SMILES |
| --- | --- |
| more than 2 fold | COc1ccc(OC)c(-n2nnc(S(=O)(=O)c3ccc(C(C)(C)C)cc3)c2C)c1 [SPA70, 4-(4-tert-Butylphenylsulfonyl)-1-(2,5-dimethoxyphenyl)-5-methyl-1H-1,2,3-triazole] |

system: CYP3A4 mRNA expression; assay: CYP3A4 mRNA expression by qRT-PCR in HepaRG cells treated with compound alone; type: cell-based, human; conditions: 24 h, compound at its IC70 concentration, vs DMSO
Experimental: Fully differentiated NoSpin™ HepaRG™ cells (Lonza, Walkersville, Maryland) were seeded into 12-well collagen-coated plates (Corning) at a density of 8 × 10^5 cells/well using Williams’ E medium (ThermoFisher) supplemented with HepaRG™ thawing and plating medium supplement (Lonza), 25 U/mL penicillin, and 25 μg/mL streptomycin (Invitrogen). The cells were then placed into a 37°C and 5% CO2 incubator for 3 days including a media change before treatment. Cells were then treated with the vehicle control (final concentration of 0.1% DMSO), the positive controls, or test compounds for 24 h before harvesting.
Total RNA was extracted from the cell lysate using an RNeasy Mini kit (Qiagen) according to the manufacturer’s instructions. RNA was reverse transcribed to cDNA using a High-Capacity RNA-to-cDNA kit (Applied Biosystems). CYP3A4 and CYP2B6 mRNA expression were both measured and normalized to the glyceraldehyde-3-phosphate dehydrogenase (GAPDH) housekeeping gene. Real-time PCR was completed using a QuantStudio Real-Time PCR system (Applied Biosystems) with TaqMan probes (CYP3A4 Assay ID: Hs00604506_m1, CYP2B6 Assay ID: Hs04183483_g1, GAPDH Assay ID: Hs99999905_m1, ThermoFisher Scientific, Waltham, MA). Following amplification, induction values were calculated using the equation: Fold = 2^−ΔΔCt, where ΔCt represents the difference in number of cycles required to reach the Ct threshold between CYP3A4 or CYP2B6 and GAPDH, and ΔΔCt represents the relative change in these differences between the control (DMSO) and treatment groups. Experimental data are expressed as a mean of triplicate values ±SD. Statistical analysis was performed using one-way analysis of variance with post hoc Dunnett’s analysis. The statistical significance values were set at p < 0.05 (*), p < 0.01 (**), and p < 0.001 (***).
To overcome the previous screening limitations, we used this more physiologically relevant cell line, HepaRG cells, to run follow-up studies with the PXR antagonists identified from the primary screen which used immortalized cell lines without a metabolic component. Using HepaRG cells, the 20 potential PXR antagonists were treated for 24 h and harvested for mRNA (Supplementary Figure S1).
FIGURE 3 HepaRG cells were treated with the top 20 most promising PXR antagonists identified from the high-throughput screen. […] The concentrations for the test compounds were the IC70 values from the original NPACT screen. Real-time PCR was used to analyze the mRNA expression of CYP3A4. Each bar represents the mean ± SD in triplicate. *, p < 0.05; **, p < 0.01.

| SMILES | inhibition of CYP3A4 mRNA expression (in words) |
| --- | --- |
| CCN(CC)C(=O)C(c1ccccc1)N1CCN(c2ccc(NC(=O)c3ccccc3-c3cccnc3)cc2F)CC1 (stereo not shown) [JNJ-31020028] | significantly inhibited CYP3A4 mRNA expression |
| CC(C)NCCCn1c(Sc2cc3c(cc2I)OCO3)nc2c(N)ncnc21 [PU-H71] | significantly inhibited CYP3A4 mRNA expression |
| CCCCCOc1cc2c(cc1-c1cc(/C=C/C(=O)O)ccc1O)C(C)(C)CCC2(C)C [UVI 3003] | generated CYP3A4 inhibition but not to a significant degree |
